Values of other authors as cited in patent US11642308B2, “Ready to use liquid formulation” (priority 2020, dated 2023).

Details: ≈25° C. and ≈1 bar

solubility in water: about 40 mg/L
Structure (SMILES): O=O [oxygen]
